Test results from ChEMBL document CHEMBL3616471, “Synthesis and in vitro antitumor evaluation of betulin acid ester derivatives as novel apoptosis inducers” (Eur J Med Chem, 2015).
Active and inactive are the calls of the source. The rule behind the calls is not given here.

What was measured:
[1] = system: Bcap37; test: Selectivity index, ratio of IC50 for mouse NIH/3T3 cells to IC50 for human Bcap37 cells; assay type: functional
[2] = system: MGC-803; test: Induction of apoptosis in human MGC803 cells assessed as apoptotic cells at 5 uM after 12 to 48 hrs using Hoechst 33258 staining by fluorescence microscopic analysis; assay type: functional, cell-based
[3] = system: A-375; test: Ratio of betulin IC50 to compound IC50 for human A375 cells; assay type: functional
[4] = system: MGC-803; test: Induction of apoptosis in human MGC803 cells assessed as cell budding at 5 uM after 12 to 48 hrs using acridine orange/ethidium bromide staining by fluorescence microscopic analysis; assay type: functional, cell-based
[5] = system: MGC-803; test: Induction of apoptosis in human MGC803 cells assessed as apoptosis ratio at 10 uM after 36 hrs using annexin-V and propidium iodide staining by flow cytometry; assay type: functional
[6] = system: MGC-803; test: Cytotoxicity against human MGC803 cells after 72 hrs by MTT assay; assay type: functional, cell-based
[7] = system: MGC-803; test: Induction of apoptosis in human MGC803 cells assessed as apoptosis ratio at 10 uM using annexin-V and propidium iodide staining by flow cytometry; assay type: functional, cell-based; conditions: TDE = time-dependent effect
[8] = system: PC-3; test: Cytotoxicity against human PC3 cells after 72 hrs by MTT assay; assay type: functional, cell-based
[9] = system: Bcap37; test: Cytotoxicity against human Bcap37 cells after 72 hrs by MTT assay; assay type: functional, cell-based
[10] = system: MGC-803; test: Induction of apoptosis in human MGC803 cells assessed as apoptotic bodies at 5 uM after 12 to 48 hrs using Hoechst 33258 staining by fluorescence microscopic analysis; assay type: functional, cell-based
[11] = system: MGC-803; test: Induction of apoptosis in human MGC803 cells assessed as membrane blebbing at 5 uM after 12 to 48 hrs using acridine orange/ethidium bromide staining by fluorescence microscopic analysis; assay type: functional, cell-based
[12] = Cytotoxicity against mouse NIH/3T3 cells after 72 hrs by MTT assay; assay type: cell-based; conditions: nih3t3, 72 h
[13] = system: Bcap37; test: Ratio of betulin IC50 to compound IC50 for human Bcap37 cells; assay type: functional
[14] = system: MCF7; test: Cytotoxicity against human MCF7 cells after 72 hrs by MTT assay; assay type: functional, cell-based
[15] = system: MCF7; test: Selectivity index, ratio of IC50 for mouse NIH/3T3 cells to IC50 for human MCF7 cells; assay type: functional
[16] = system: MGC-803; test: Induction of apoptosis in human MGC803 cells assessed as chromatin condensation at 5 uM after 12 to 48 hrs using Hoechst 33258 staining by fluorescence microscopic analysis; assay type: functional, cell-based
[17] = system: A-375; test: Selectivity index, ratio of IC50 for mouse NIH/3T3 cells to IC50 for human A375 cells; assay type: functional
[18] = system: MCF7; test: Ratio of betulin IC50 to compound IC50 for human MCF7 cells; assay type: functional
[19] = system: MGC-803; test: Induction of apoptosis in human MGC803 cells assessed as pyknosis at 5 uM after 12 to 48 hrs using acridine orange/ethidium bromide staining by fluorescence microscopic analysis; assay type: functional, cell-based
[20] = system: PC-3; test: Selectivity index, ratio of IC50 for mouse NIH/3T3 cells to IC50 for human PC3 cells; assay type: functional
[21] = system: MGC-803; test: Ratio of betulin IC50 to compound IC50 for human MGC803 cells; assay type: functional
[22] = system: A-375; test: Cytotoxicity against human A375 cells after 72 hrs by MTT assay; assay type: functional, cell-based
[23] = system: MGC-803; test: Selectivity index, ratio of IC50 for mouse NIH/3T3 cells to IC50 for human MGC803 cells; assay type: functional
[24] = system: MGC-803; test: Induction of apoptosis in human MGC803 cells assessed as formation of nicks in DNA at 5 uM after 48 hrs by TUNNEL assay; assay type: functional, cell-based
[25] = system: PC-3; test: Ratio of betulin IC50 to compound IC50 for human PC3 cells; assay type: functional

With `C=C(C)[C@@H]1CC[C@]2(COC(=O)CCC(=O)N3CCCCC3)CC[C@]3(C)[C@H](CC[C@@H]4[C@@]5(C)CC[C@H](O)C(C)(C)[C@@H]5CC[C@]43C)[C@@H]12` the “Ratio IC50” value [1] was 6.81, the Activity [2] was “Active” and the “Ratio IC50” value [3] was 4. The Activity [4] was “Active”, the Activity [5] was 31.11% and the Activity [6] was “Dose-dependent effect”. The IC50 ([6]; MGC-803, 72 h) was 4.3 µM, the Activity [7] was “tde” and the Activity [8] was “Dose-dependent effect”. The IC50 ([8]; PC-3, 72 h) was 4.5 µM, the Activity [9] was “Dose-dependent effect” and the IC50 ([9]; Bcap37, 72 h) was 5.2 µM. The Activity [10] was “Active”, the Activity [11] was “Active” and the Activity [12] was “Non-toxic”. The “Ratio IC50” value [13] was 4, the Activity [14] was “Dose-dependent effect” and the IC50 ([14]; MCF7, 72 h) was 5.2 µM. The “Ratio IC50” value [15] was 6.8, the Activity [16] was “Active” and the “Ratio IC50” value [17] was 4.72. For the same compound, the “Ratio IC50” value [18] was 4, the Activity [19] was “Active” and the “Ratio IC50” value [20] was 7.86. For the same compound, the “Ratio IC50” value [21] was 4, the Activity [22] was “Dose-dependent effect” and the IC50 ([22]; A-375, 72 h) was 7.5 µM. The “Ratio IC50” value [23] was 8.23, the Activity [24] was “Active” and the “Ratio IC50” value [25] was 4.
